This note sets out measurements from US10738056B2 (Aduro BioTech, Inc., priority 2017, dated 2020).

The target in assay [1] is Human cGAS amino acids 155-522 (Homo sapiens (Human), UniProt Q8N884). Nature of the assay: cGAS biochemical activity assay (ATP remaining, Kinase-Glo Max luminescence). As to conditions: human cGAS 155-522, ATP remaining (Kinase-Glo Max); read-out: cGAS IC50. (Kinase-Glo reads ATP consumption through a luciferase reaction.)
For assay [2], the system named is cGAS/STING pathway in THP1 cells. In words: THP1 cell-based cGAS/STING pathway activity assay (IRF-3-linked luciferase reporter). Conditions: Homo sapiens, THP-1. An excerpt: A cellular assay can be used to assess the compounds of the invention for their ability to inhibit the cGAS/STING pathway. Cells that express a luciferase-based reporter that is linked to IRF-3 activation are used to determine response as a function of compound concentration. Such an assay is described in Vincent et al., Nature Communications 2017, 8(1):750, doi: 10.1038/s41467-017-00833-9.
A cellular assay can be used to assess the compounds of the invention for their ability to inhibit the cGAS/STING pathway. Cells that express a luciferase-based reporter that is linked to IRF-3 activation are used to determine response as a function of compound concentration. Such an assay is described in Vincent et al., Nature Communications 2017, 8(1):750, doi: 10.1038/s41467-017-00833-9. Compounds of the invention were assessed using similar assay methods in a THP1 cell assay to generate IC50 values as provided in the following Table 16. In this table, activity level “A” indicates an IC50 value less than 20 μM, “B” indicates an IC50 value between 20 and 100 μM, and “C” indicates an IC50 value above the upper limit of the assay (100 μM), or where an IC50 value could not be generated from the data.
(A reporter such as luciferase makes a cellular process visible.)

Sequence of Human cGAS amino acids 155-522 (Q8N884 157-522): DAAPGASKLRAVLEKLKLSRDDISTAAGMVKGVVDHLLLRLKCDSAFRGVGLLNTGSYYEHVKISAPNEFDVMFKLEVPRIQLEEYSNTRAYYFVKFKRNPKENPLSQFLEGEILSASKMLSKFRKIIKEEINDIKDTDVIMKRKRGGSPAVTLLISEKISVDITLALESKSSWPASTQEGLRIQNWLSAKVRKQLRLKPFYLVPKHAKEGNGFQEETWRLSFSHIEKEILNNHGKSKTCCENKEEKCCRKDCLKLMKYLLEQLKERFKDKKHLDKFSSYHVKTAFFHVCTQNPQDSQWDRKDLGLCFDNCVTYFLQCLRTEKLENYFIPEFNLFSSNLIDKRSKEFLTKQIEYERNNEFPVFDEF

As a reminder, the IC50 is the concentration that inhibits the measured activity by half. For `COC1CCCCC1NC(=O)c1c(C)[nH]c2c(-c3ccccc3)c(C(F)(F)F)nn2c1=O` (single isomer, unassigned) [Compound A1089, N-(2-methoxycyclohexyl)-5-methyl-7-oxo-3-phenyl-2-(trifluoromethyl)-4,7-dihydropyrazolo[1,5-a]pyrimidine-6-carboxamide], the values for the IC50 in assay [1] and in assay [2] were less than 20 µM and greater than 100 µM, respectively.

In the case of `Cc1[nH]c2c(-c3ccccc3)c(C(F)(F)F)nn2c(=O)c1C(=O)Nc1ccccc1` [Compound A1002, 5-methyl-7-oxo-N,3-diphenyl-2-(trifluoromethyl)-4,7-dihydropyrazolo[1,5-a]pyrimidine-6-carboxamide], the IC50 is less than 20 µM in assay [1] and 20 to 100 µM in assay [2].

Turning to `Cc1[nH]c2c(-c3ccccc3)c(C(F)(F)F)nn2c(=O)c1C(=O)Nc1ccccc1N` [Compound A1006, N-(2-aminophenyl)-5-methyl-7-oxo-3-phenyl-2-(trifluoromethyl)-4,7-dihydropyrazolo[1,5-a]pyrimidine-6-carboxamide], the IC50 in assay [1] is less than 20 µM; in assay [2] it was greater than 100 µM.

As for `Cc1[nH]c2c(-c3ccccc3)c(C(F)(F)F)nn2c(=O)c1C(=O)NCc1ccccc1` [Compound A1023, N-benzyl-5-methyl-7-oxo-3-phenyl-2-(trifluoromethyl)-4,7-dihydropyrazolo[1,5-a]pyrimidine-6-carboxamide], the IC50 fell in the range of 20 to 250 µM in assay [1] and 20 to 100 µM in assay [2].

Take `Cc1[nH]c2c(-c3ccccc3)c(C(F)(F)F)nn2c(=O)c1C(=O)Nc1nccs1` [Compound A1028, 5-methyl-7-oxo-3-phenyl-N-(thiazol-2-yl)-2-(trifluoromethyl)-4,7-dihydropyrazolo[1,5-a]pyrimidine-6-carboxamide]: the IC50 is less than 20 µM in assay [1] and 20 to 100 µM in assay [2].

As for `Cc1[nH]c2c(-c3ccccc3)c(C(F)(F)F)nn2c(=O)c1C(=O)Nc1ccn(C)n1` [Compound A1029, 5-methyl-N-(1-methyl-1H-pyrazol-3-yl)-7-oxo-3-phenyl-2-(trifluoromethyl)-4,7-dihydropyrazolo[1,5-a]pyrimidine-6-carboxamide], the 50% inhibitory concentration (IC50) in assay [1] was less than 20 µM; in assay [2] it was 20 to 100 µM.

As for `COc1ccccc1NC(=O)c1c(C)[nH]c2c(-c3ccccc3)c(C(F)(F)F)nn2c1=O` [Compound A1031, N-(2-methoxyphenyl)-5-methyl-7-oxo-3-phenyl-2-(trifluoromethyl)-4,7-dihydropyrazolo[1,5-a]pyrimidine-6-carboxamide], the IC50 was less than 20 µM in assay [1] and greater than 100 µM in assay [2].

Turning to `COc1cccc(NC(=O)c2c(C)[nH]c3c(-c4ccccc4)c(C(F)(F)F)nn3c2=O)c1` [Compound A1032, N-(3-methoxyphenyl)-5-methyl-7-oxo-3-phenyl-2-(trifluoromethyl)-4,7-dihydropyrazolo[1,5-a]pyrimidine-6-carboxamide], the IC50 in assay [1] and in assay [2] was less than 20 µM throughout.

`Cc1[nH]c2c(-c3ccccc3)c(C(F)(F)F)nn2c(=O)c1C(=O)Nc1ccccc1Cl` [Compound A1033, N-(2-chlorophenyl)-5-methyl-7-oxo-3-phenyl-2-(trifluoromethyl)-4,7-dihydropyrazolo[1,5-a]pyrimidine-6-carboxamide]: the values for the IC50 in assay [1] and in assay [2] were 20 to 250 µM and 20 to 100 µM, respectively.

Turning to `Cc1[nH]c2c(-c3ccccc3)c(C(F)(F)F)nn2c(=O)c1C(=O)Nc1nc(C(C)C)co1` [Compound A1048, N-(4-isopropyloxazol-2-yl)-5-methyl-7-oxo-3-phenyl-2-(trifluoromethyl)-4,7-dihydropyrazolo[1,5-a]pyrimidine-6-carboxamide], the IC50 in assay [1] lay within 20 to 250 µM; in assay [2], 20 to 100 µM.

For the compound `Cc1[nH]c2c(-c3ccccc3)c(C(F)(F)F)nn2c(=O)c1C(=O)Nc1ccccc1S(=O)(=O)C(C)C` [Compound A1051, N-(2-(isopropylsulfonyl)phenyl)-5-methyl-7-oxo-3-phenyl-2-(trifluoromethyl)-4,7-dihydropyrazolo[1,5-a]pyrimidine-6-carboxamide], the 50% inhibitory concentration (IC50) was less than 20 µM in assay [1] and 20 to 100 µM in assay [2].

Turning to `Cc1nc(NC(=O)c2c(C)[nH]c3c(-c4ccccc4)c(C(F)(F)F)nn3c2=O)oc1C` [Compound A1056, N-(4,5-dimethyloxazol-2-yl)-5-methyl-7-oxo-3-phenyl-2-(trifluoromethyl)-4,7-dihydropyrazolo[1,5-a]pyrimidine-6-carboxamide], the IC50 in assay [1] is less than 20 µM; in assay [2] it was 20 to 100 µM.

Take `Cc1[nH]c2c(-c3ccccc3)c(C(F)(F)F)nn2c(=O)c1C(=O)Nc1cccc2c1OC(F)(F)O2` [Compound A1062, N-(2,2-difluorobenzo[d][1,3]dioxol-4-yl)-5-methyl-7-oxo-3-phenyl-2-(trifluoromethyl)-4,7-dihydropyrazolo[1,5-a]pyrimidine-6-carboxamide]: the half-inhibitory concentration (IC50) in assay [1] and in assay [2] was less than 20 µM throughout.

For the compound `COc1ccnc(NC(=O)c2c(C)[nH]c3c(-c4ccccc4)c(C(F)(F)F)nn3c2=O)c1` [Compound A1063, N-(4-methoxypyridin-2-yl)-5-methyl-7-oxo-3-phenyl-2-(trifluoromethyl)-4,7-dihydropyrazolo[1,5-a]pyrimidine-6-carboxamide], the results for the IC50 in assay [1] and in assay [2] were less than 20 µM and 20 to 100 µM, respectively.

For `COc1cccc(NC(=O)c2c(C)[nH]c3c(-c4ccccc4)c(C(F)(F)F)nn3c2=O)n1` [Compound A1064, N-(6-methoxypyridin-2-yl)-5-methyl-7-oxo-3-phenyl-2-(trifluoromethyl)-4,7-dihydropyrazolo[1,5-a]pyrimidine-6-carboxamide], the IC50 is less than 20 µM in assay [1] and 20 to 100 µM in assay [2].

On to `Cc1[nH]c2c(-c3ccccc3)c(C(F)(F)F)nn2c(=O)c1C(=O)Nc1ccn(C(C)C)n1` [Compound A1065, N-(1-isopropyl-1H-pyrazol-3-yl)-5-methyl-7-oxo-3-phenyl-2-(trifluoromethyl)-4,7-dihydropyrazolo[1,5-a]pyrimidine-6-carboxamide], for which the IC50 in assay [1] is less than 20 µM; in assay [2], 20 to 100 µM.

For the compound `Cc1[nH]c2c(-c3ccccc3)c(C(F)(F)F)nn2c(=O)c1-c1nnc(C2CCCCC2N)o1` (stereo not drawn) [Compound D1080, 6-(5-(2-aminocyclohexyl)-1,3,4-oxadiazol-2-yl)-5-methyl-3-phenyl-2-(trifluoromethyl)pyrazolo[1,5-a]pyrimidin-7(4H)-one], in assay [1], the IC50 is greater than 250 µM.

As for `Cc1[nH]c2c(-c3ccccc3)c(C(F)(F)F)nn2c(=O)c1-c1nnc(-c2ccc(N)cc2)o1` [Compound D1081, 6-(5-(4-aminophenyl)-1,3,4-oxadiazol-2-yl)-5-methyl-3-phenyl-2-(trifluoromethyl)pyrazolo[1,5-a]pyrimidin-7(4H)-one], the IC50 in assay [1] is greater than 250 µM.

Turning to `Cc1[nH]c2c(-c3ccccc3)c(C(F)(F)F)nn2c(=O)c1-c1nnc(-c2ccccc2N)o1` [Compound D1082, 6-(5-(2-aminophenyl)-1,3,4-oxadiazol-2-yl)-5-methyl-3-phenyl-2-(trifluoromethyl)pyrazolo[1,5-a]pyrimidin-7(4H)-one], the IC50 in assay [1] was 20 to 250 µM.

On to `Cc1[nH]c2c(-c3ccccc3)c(C(F)(F)F)nn2c(=O)c1-c1nnc(N2CCCC(CN)C2)o1` (stereo not drawn) [Compound D1083, 6-(5-(3-(aminomethyl)piperidin-1-yl)-1,3,4-oxadiazol-2-yl)-5-methyl-3-phenyl-2-(trifluoromethyl)pyrazolo[1,5-a]pyrimidin-7(4H)-one], for which the IC50 in assay [1] fell in the range of 20 to 250 µM.

Take `Cc1[nH]c2c(-c3ccccc3)c(C(F)(F)F)nn2c(=O)c1-c1nnc(N2CCCC(N)C2)o1` (stereo not drawn) [Compound D1084, 6-(5-(3-aminopiperidin-1-yl)-1,3,4-oxadiazol-2-yl)-5-methyl-3-phenyl-2-(trifluoromethyl)pyrazolo[1,5-a]pyrimidin-7(4H)-one]: the IC50 in assay [1] was less than 20 µM.

Consider `Cc1[nH]c2c(-c3ccccc3)c(C(F)(F)F)nn2c(=O)c1-c1nnc(N2CCCC(O)C2)o1` (stereo not drawn) [Compound D1087, 6-(5-(3-hydroxypiperidin-1-yl)-1,3,4-oxadiazol-2-yl)-5-methyl-3-phenyl-2-(trifluoromethyl)pyrazolo[1,5-a]pyrimidin-7(4H)-one], for which the IC50 in assay [1] lay within 20 to 250 µM.

As to `Cc1[nH]c2c(-c3ccccc3)c(C#N)nn2c(=O)c1-c1nnc(C2CCCCC2)o1` [Compound D1089, 6-(5-cyclohexyl-1,3,4-oxadiazol-2-yl)-5-methyl-7-oxo-3-phenyl-4,7-dihydropyrazolo[1,5-a]pyrimidine-2-carbonitrile], in assay [1], the IC50 was less than 20 µM.

Consider `COc1cccc2oc(-c3c(C)[nH]c4c(-c5ccccc5)nnn4c3=O)nc12` [Compound E1001, 6-(4-methoxybenzo[d]oxazol-2-yl)-5-methyl-3-phenyl-[1,2,3]triazolo[1,5-a]pyrimidin-7(4H)-one], for which, in assay [1], the IC50 is less than 20 µM.

In the case of `CO[C@@H]1CCCCC1c1nnc(-c2c(C)[nH]c3c(-c4ccccc4)c(C(F)(F)F)nn3c2=O)o1` (stereo partly drawn) [D1046 Iso-2], in assay [1], the IC50 is less than 20 µM.

As to `CO[C@H]1CCCC1c1nnc(-c2c(C)[nH]c3c(-c4ccccc4)c(C(F)(F)F)nn3c2=O)o1` (stereo partly drawn) [D1049 Iso-1], in assay [1], the IC50 was less than 20 µM.
